# Key:
# [1] = tested on: recombinant NL4-3 virus (Renilla luciferase in nef) in MT-2 cells; assay: whole plant or invertebrate; assay type: cell-based, HIV; settings: luciferase activity
# Outline: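 MT-2 cells infected for 4-5 days with NL4-3 reporter virus (Renilla luciferase replacing part of nef, produced by transfection of 293T cells) in the presence of serial compound dilutions. Antiviral activity quantified by luciferase activity read with a live-cell substrate.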
# [2] = tested on: uninfected MT2 cells; assay: Compound cytotoxicity, XTT-based colorimetric assay; assay type: cell-based; settings: day 4, XTT
# Outline: (§1)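 Run under the antiviral-assay protocol but without virus. Viability was read on day 4 and CC50 values were derived from the readout.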
# [3] = as above; assay type: cell-based; settings: human, uninfected MT2 cells, day 4, XTT
# Outline: as §1
# [4] = MT-2 cells infected for 4-5 days with recombinant NL4-3 Renilla luciferase virus
# [5] = Renilla, NL43, MT-2 cells infected for 4-5 days with recombinant NL4-3 Renilla luciferase virus
SMILES,"EC50 [1, 4]",CC50 [2],CC50 at 4 days [3],"EC50 [1, 5]"
"COc1ccc(N(C)C(=O)[C@H](Cc2ccccc2)NC(=O)C=C(C)CC(=O)N[C@@H](Cc2ccccc2)C(=O)N(C)c2ccc(OC)cc2)cc1 (single isomer, unassigned) [Example 114]",1.78 µM,27.1 µM,,
"C=CCCN(C(=O)[C@H](Cc1cc(F)cc(F)c1)NC(=O)NS(=O)(=O)N[C@@H](Cc1cc(F)cc(F)c1)C(=O)N(CCC=C)c1ccc2scnc2c1)c1ccc2scnc2c1 (single isomer, unassigned) [Example 142]",0.82 µM,17.4 µM,,
"COc1ccc(N(C)C(=O)[C@H](Cc2cc(F)cc(F)c2)NC(=O)C(C)n2c(=O)n(C(C)C(=O)N[C@@H](Cc3cc(F)cc(F)c3)C(=O)N(C)c3ccc(OC)cc3)c3ccccc32)cc1 (single isomer, unassigned) [Example 133]",0.41 µM,13.9 µM,,
"COc1ccc(N(C)C(=O)[C@H](Cc2ccccc2)NC(=O)C(C)n2c(=O)n(C(C)C(=O)N[C@@H](Cc3ccccc3)C(=O)N(C)c3ccc(OC)cc3)c3ccccc32)cc1 (single isomer, unassigned) [Example 134]",0.82 µM,10.8 µM,,
"C=CCCN(C(=O)[C@H](Cc1cc(F)cc(F)c1)NC(=O)NS(=O)(=O)N[C@@H](Cc1cc(F)cc(F)c1)C(=O)N(CCC=C)c1ccc2scnc2c1)c1ccc2scnc2c1 (single isomer, unassigned) [Example 141]",0.09 µM,,16.2 µM,
Cc1ccc(N(C)C(=O)[C@H](Cc2ccccc2)NC(=O)NS(=O)(=O)N[C@@H](Cc2ccccc2)C(=O)N(C)c2ccc(C)c(Cl)c2)cc1Cl [Example 220],,,16.7 µM,3.8 µM
COc1ccc(N(C)C(=O)[C@H](Cc2ccccc2)NC(=O)c2ccnc(C(=O)N[C@@H](Cc3ccccc3)C(=O)N(C)c3ccc(OC)cc3)c2)cc1 [Example 105],,,3.1 µM,0.68 µM
C=CCN(C(=O)[C@H](Cc1cc(F)cc(F)c1)NC(=O)c1cc(F)c(F)cc1C(=O)N[C@@H](Cc1cc(F)cc(F)c1)C(=O)N(CC=C)c1ccc(OC)cc1)c1ccc(OC)cc1 [Example 192],,,58.2 µM,7.24 µM
COc1ccc(N(C)C(=O)[C@H](Cc2ccccc2)NC(=O)/C=C/C(=O)N[C@@H](Cc2ccccc2)C(=O)N(C)c2ccc(OC)cc2)cc1 [Example 31],,,3.5 µM,0.78 µM
CN(C(=O)[C@H](Cc1ccccc1)NC(=O)NS(=O)(=O)N[C@@H](Cc1ccccc1)C(=O)N(C)c1ccc2scnc2c1)c1ccc2scnc2c1 [Example 13],,,≥ 100 µM,0.08 µM
C=CCCN(C(=O)[C@H](Cc1ccccc1)NC(=O)NS(=O)(=O)N[C@@H](Cc1ccccc1)C(=O)N(CC=C)c1ccc(OC)nc1)c1ccc(OC)nc1 [Example 223],,,≥ 25 µM,1.5 µM
CN(C(=O)[C@H](Cc1cc(F)cc(F)c1)NC(=O)NS(=O)(=O)N[C@@H](Cc1cc(F)cc(F)c1)C(=O)N(C)c1ccc(C(C)(C)C)cc1)c1ccc(C(C)(C)C)cc1 [Example 168],,,16.2 µM,0.15 µM
COc1ccc(N(C)C(=O)[C@H](Cc2ccccc2)NC(=O)C[C@H](O)C(=O)N[C@@H](Cc2ccccc2)C(=O)N(C)c2ccc(OC)cc2)cc1 [Example 32],,,34.6 µM,3.29 µM
COc1ccc(N(C)C(=O)[C@H](Cc2ccccc2)NC(=O)CCSCCC(=O)N[C@@H](Cc2ccccc2)C(=O)N(C)c2ccc(OC)cc2)cc1 [Example 41],,,23 µM,0.1 µM
COc1ccc(-n2ccnc2C(Cc2ccccc2)NC(=O)NS(=O)(=O)N[C@@H](Cc2ccccc2)c2nccn2-c2ccc(OC)cc2)cc1 (some centres unmarked) [Example 159],,,86.4 µM,3.68 µM
COc1ccc(N(C)C(=O)[C@H](Cc2cc(F)cc(F)c2)NC(=O)c2ccc(F)c(C(=O)N[C@@H](Cc3cc(F)cc(F)c3)C(=O)N(C)c3ccc(OC)nc3)c2)cn1 [Example 196],,,≥ 100 µM,0.37 µM
COc1ccc(N(C)C(=O)[C@H](Cc2ccccc2)NC(=O)c2ccc(C(=O)N[C@@H](Cc3ccccc3)C(=O)N(C)c3ccc(OC)cc3)cc2)cc1 [Example 25],,,3.7 µM,1.13 µM
Cc1cc(C(=O)N[C@@H](Cc2cc(F)cc(F)c2)C(=O)N(C)c2ccc3scnc3c2)cc(C(=O)N[C@@H](Cc2cc(F)cc(F)c2)C(=O)N(C)c2ccc3scnc3c2)c1 [Example 127],,,3.8 µM,0.01 µM
CN(C(=O)[C@H](Cc1cc(F)cc(F)c1)NC(=O)CN1c2ccccc2N(CC(=O)N[C@@H](Cc2cc(F)cc(F)c2)C(=O)N(C)c2ccc3snnc3c2)S1(=O)=O)c1ccc2snnc2c1 [Example 178],,,≥ 100 µM,0.02 µM
Cc1ccc(N(C)C(=O)[C@H](Cc2cc(F)cc(F)c2)NC(=O)NS(=O)(=O)N[C@@H](Cc2cc(F)cc(F)c2)C(=O)N(C)c2ccc(C)cn2)nc1 [Example 182],,,97.9 µM,0.4 µM
COc1ccc(N(C)C(=O)[C@H](Cc2ccccc2)NS(=O)(=O)NC(=O)N[C@@H](Cc2ccccc2)C(=O)N(C)c2ccc3scnc3c2)cc1 [Example 35],,,99.9 µM,0.03 µM
CN(C(=O)[C@H](Cc1cc(F)cc(F)c1)NC(=O)NS(=O)(=O)N[C@@H](Cc1cc(F)cc(F)c1)C(=O)N(C)c1ccc2c(c1)OCCO2)c1ccc2c(c1)OCCO2 [Example 162],,,43.9 µM,0.07 µM

# Reference: patent US20180072997A1, “INHIBITORS OF HUMAN IMMUNODEFICIENCY VIRUS REPLICATION” (ViiV HEATHCARE UK (NO.5) LIMITED, priority 2015, published 2018)
